The values below come from patent publication US9023789B2, “Amylin analogs and pharmaceutical compositions thereof” (Novo Nordisk A/S, priority 2012, dated 2015).

≈ marks a conversion by molar mass, not a printed value. Read-outs that look alike come from different tables or passages of the source. Some results are limits rather than exact numbers.

In series [1] the target is T1, rat calcitonin receptor (Rattus norvegicus, UniProt P32214).
T1 construct: expressed in transfected cells; host or cells: BHK tk'ts 13 (transient, FuGENE 6), membranes
T1 sequence (P32214 25-479 isoform P32214-2 limits assumed): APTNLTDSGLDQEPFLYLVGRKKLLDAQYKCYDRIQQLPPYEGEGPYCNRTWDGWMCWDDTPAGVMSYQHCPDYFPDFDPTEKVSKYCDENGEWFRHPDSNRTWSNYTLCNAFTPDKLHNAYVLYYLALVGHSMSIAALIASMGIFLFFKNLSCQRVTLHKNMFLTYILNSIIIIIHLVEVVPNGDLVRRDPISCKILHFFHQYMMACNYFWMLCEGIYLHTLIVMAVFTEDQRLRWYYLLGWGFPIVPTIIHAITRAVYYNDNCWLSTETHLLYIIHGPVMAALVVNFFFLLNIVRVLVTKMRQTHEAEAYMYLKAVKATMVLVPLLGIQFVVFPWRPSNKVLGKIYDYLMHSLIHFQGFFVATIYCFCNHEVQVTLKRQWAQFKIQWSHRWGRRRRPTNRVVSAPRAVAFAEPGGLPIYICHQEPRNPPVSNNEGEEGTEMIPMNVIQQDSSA
As to the kind of experiment: ASSAY (VIII) binding to the rat calcitonin receptor. The conditions noted are these: Table 7, read-out: rCTR bind IC50. In short, it runs like this: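 Membranes were prepared from BHK tk′ts 13 cells transiently transfected with rat calcitonin receptor. Cells were grown in DMEM with 10% FBS and harvested approximately 48 hours after transfection.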

In series [2] the target is T2, human amylin receptor (membranes from Amylin 3(a)/CRE-luc cells) (Homo sapiens, UniProt O60896+P30988).
T2 construct: expressed in transfected cells
T2 sequence (P30988 25-474): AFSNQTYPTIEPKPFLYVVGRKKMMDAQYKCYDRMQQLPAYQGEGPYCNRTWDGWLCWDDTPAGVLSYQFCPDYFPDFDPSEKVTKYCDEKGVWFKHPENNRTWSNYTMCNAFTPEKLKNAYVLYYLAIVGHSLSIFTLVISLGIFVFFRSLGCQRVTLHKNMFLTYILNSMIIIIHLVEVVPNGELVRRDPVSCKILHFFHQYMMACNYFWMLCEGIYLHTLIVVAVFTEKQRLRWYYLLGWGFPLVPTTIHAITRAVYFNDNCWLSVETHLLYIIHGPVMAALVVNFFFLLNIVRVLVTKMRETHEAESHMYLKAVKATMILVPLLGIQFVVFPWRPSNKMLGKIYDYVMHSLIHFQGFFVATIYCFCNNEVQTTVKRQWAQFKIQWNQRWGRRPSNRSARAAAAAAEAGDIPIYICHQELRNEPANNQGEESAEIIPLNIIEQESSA
T2 sequence (O60896 24-148 partner): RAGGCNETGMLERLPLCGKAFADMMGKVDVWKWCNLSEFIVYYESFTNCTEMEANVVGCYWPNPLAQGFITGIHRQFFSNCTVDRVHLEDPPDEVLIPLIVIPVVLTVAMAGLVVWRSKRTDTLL
As to the kind of experiment: ASSAY (V) binding to the human amylin receptor (SPA, 125I-rat amylin).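 Note: competition binding of cell membranes (35 ng/µL) mixed with SPA beads in 384-well plates at 40 µL total volume, read by scintillation counting.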

Series [3] in a line: ASSAY (IV) determination of solubility. The series is classed as physicochemical. The method in brief:
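Polypeptide in water at […] mixed 1:1 with 100 mM buffers of pH 3.0-8.0 (glycylglycine pH 3-5, bistrispropane pH 6-8). Held 18 h at room temperature, then centrifuged; concentration remaining in solution measured by UPLC.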

The subject of series [4] is Sprague Dawley (SD) rats. As to the kind of experiment: ASSAY (I) efficacy testing on appetite (food intake) using an ad libitum fed rat model. Format: in vivo. The conditions noted are these: rat. In short, it runs like this:
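Ad libitum fed SD rats (200–250 g) were housed singly on a reversed light/dark cycle and given one 0.01–3 mg/kg dose ip, po or sc just before lights-off, with 5–8 per dose group plus vehicle controls. Food intake was recorded hourly for 7 h, then at 24 h and sometimes 48 h; Grubbs outliers were excluded.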

Setting [5] is: Table 5, selectivity, hCTR bind IC50 / hAmylin-R bind IC50.
Where [6] appears, read: Table 5a, selectivity, hCTR bind IC50 / hAmylin-R bind IC50.
[7] abbreviates: Table 5b, selectivity, hCTR bind IC50 / hAmylin-R bind IC50.
[8] abbreviates: Table 5c, selectivity, hCTR bind IC50 / hAmylin-R bind IC50.
Setting [9] is: Table 7, human binding selectivity, included for comparison.
The mark [10] stands for this setting: Table 7a (preferred compounds), human binding selectivity, included for comparison.
Where [11] appears, read: ratio of human calcitonin receptor binding IC50 to human amylin receptor binding IC50.
Where [12] appears, read: bistrispropane buffer, pH 6.5, read-out: Solubility pH 6.5 Concentration.
Setting [13] is: bistrispropane buffer, pH 7.5, read-out: Solubility pH 7.5 Concentration.
[14] abbreviates: bistrispropane buffer, pH 6.0, read-out: Solubility pH 6.0 Concentration.
Setting [15] is: bistrispropane buffer, pH 7.0, read-out: Solubility pH 7.0 Concentration.
The mark [16] stands for this setting: bistrispropane buffer, pH 8.0, read-out: Solubility pH 8.0 Concentration.
The mark [17] stands for this setting: glycylglycine buffer, pH 3.0, read-out: Solubility pH 3.0 Concentration.
The mark [18] stands for this setting: glycylglycine buffer, pH 4.0, read-out: Solubility pH 4.0 Concentration.
The mark [19] stands for this setting: glycylglycine buffer, pH 5.0, read-out: Solubility pH 5.0 Concentration.

As a reminder, the IC50 is the concentration that gives 50% inhibition.

In the case of `CC[C@H](C)[C@H](NC(=O)[C@H](C)NC(=O)CNC(=O)[C@H](Cc1ccccc1)NC(=O)[C@H](CC(N)=O)NC(=O)[C@@H]1CCCN1C(=O)[C@H](CO)NC(=O)[C@H](CO)NC(=O)[C@H](Cc1c[nH]cn1)NC(=O)[C@H](CCCNC(=N)N)NC(=O)[C@H](CC(C)C)NC(=O)[C@H](Cc1ccccc1)NC(=O)[C@H](CC(=O)O)NC(=O)[C@H](C)NC(=O)[C@H](CC(C)C)NC(=O)[C@H](CCCNC(=N)N)NC(=O)[C@H](CCC(N)=O)NC(=O)[C@@H](NC(=O)[C@H](C)NC(=O)[C@@H]1CSSC[C@H](NC(=O)[C@@H](N)CCCCNC(=O)CC[C@H](NC(=O)CC[C@H](NC(=O)CCCCCCCCCCCCCCCCCCC(=O)O)C(=O)O)C(=O)O)C(=O)N[C@@H](CC(N)=O)C(=O)N[C@@H]([C@@H](C)O)C(=O)N[C@@H](C)C(=O)N[C@@H]([C@@H](C)O)C(=O)N1)[C@@H](C)O)C(=O)N1CCC[C@H]1C(=O)N[C@@H](CO)C(=O)N[C@@H](CO)C(=O)N[C@H](C(=O)N[C@@H](CC(N)=O)C(=O)N[C@H](C(=O)NCC(=O)N[C@@H](CO)C(=O)N[C@@H](CCCNC(=N)N)C(=O)N[C@H](C(=O)N[C@@H](Cc1ccc(O)cc1)C(N)=O)[C@@H](C)O)C(C)C)[C@@H](C)O` [Example 52, N-ε-1-{(S)-4-carboxy-4-[(S)-4-carboxy-4-(19-carboxynonadecanoylamino)butyrylamino]butyryl}-[Asp14,Arg17,Pro21,Pro27,Arg35]-human amylin], the IC50 in series [1] was 159 nM. In addition, the “Ratio hCT/hAmylin binding” value in series [2] (setting [5]), in series [2] (setting [6]), in series [2] (setting [7]), in series [2] (setting [8]), in series [2] (setting [9]) and in series [2] (setting [10]) was 81.6 throughout. In addition, in series [2] (setting [11]), the “Ratio hCT/hAmylin binding” value is reported as 81.6. Further, the solubility at 18 h in series [3] (setting [12]) was no less than 200 µM; in series [3] (setting [13]) it was 106 µM (≈ 483 µg/mL); in series [3] (setting [14]) it was no less than 200 µM; in series [3] (setting [15]) it was 155 µM (≈ 706 µg/mL); in series [3] (setting [16]), 110 µM (≈ 501 µg/mL); in series [3] (setting [17]), no less than 200 µM. The solubility at 18 h in series [3] (setting [18]) and in series [3] (setting [19]) was no less than 200 µM each time. Also, the “Food intake reduction 0-24 h 3 nmol/kg (%)” value in series [4] (3 nmol/kg, 0-24 h) amounted to 25%. In addition, the “Food intake reduction 24-48 h 3 nmol/kg (%)” value in series [4] (3 nmol/kg, 24-48 h) is recorded as 15%. Moreover, the “Food intake reduction 0-24 h 30 nmol/kg (%)” value in series [4] (0-24 h) came out at 63%. The “Food intake reduction 24-48 h 30 nmol/kg (%)” value in series [4] (24-48 h) was 50%.
As to `CC[C@H](C)[C@H](NC(=O)[C@H](C)NC(=O)CNC(=O)[C@H](Cc1ccccc1)NC(=O)[C@H](CC(N)=O)NC(=O)[C@@H]1CCCN1C(=O)[C@H](CO)NC(=O)[C@H](CO)NC(=O)[C@H](Cc1c[nH]cn1)NC(=O)[C@H](CCCNC(=N)N)NC(=O)[C@H](CC(C)C)NC(=O)[C@H](Cc1ccccc1)NC(=O)[C@H](CC(N)=O)NC(=O)[C@H](C)NC(=O)[C@H](CC(C)C)NC(=O)[C@H](CCCNC(=N)N)NC(=O)[C@H](CCC(N)=O)NC(=O)[C@@H](NC(=O)[C@H](C)NC(=O)[C@@H]1CSSC[C@H](NC(=O)[C@@H](N)CCCCNC(=O)CC[C@H](NC(=O)CCCCCCCCCCCCCCCCCCC(=O)O)C(=O)O)C(=O)N[C@@H](CC(N)=O)C(=O)N[C@@H]([C@@H](C)O)C(=O)N[C@@H](C)C(=O)N[C@@H]([C@@H](C)O)C(=O)N1)[C@@H](C)O)C(=O)N1CCC[C@H]1C(=O)N[C@@H](CO)C(=O)N[C@@H](CO)C(=O)N[C@H](C(=O)N[C@@H](CC(N)=O)C(=O)N[C@H](C(=O)NCC(=O)N[C@@H](CO)C(=O)N[C@@H](Cc1c[nH]cn1)C(=O)N[C@H](C(=O)N[C@@H](Cc1ccc(O)cc1)C(N)=O)[C@@H](C)O)C(C)C)[C@@H](C)O` [Example 60], in series [1], the IC50 came out at 26.3 nM. Also, the “Ratio hCT/hAmylin binding” value in series [2] (setting [5]), in series [2] (setting [6]), in series [2] (setting [7]), in series [2] (setting [8]), in series [2] (setting [9]) and in series [2] (setting [10]) was 45.2 throughout. In addition, the “Ratio hCT/hAmylin binding” value in series [2] (setting [11]) was 45.2. Also, the solubility at 18 h in series [3] (setting [12]) was no less than 200 µM; in series [3] (setting [13]) it was 186 µM (≈ 819 µg/mL); in series [3] (setting [14]), no less than 200 µM; in series [3] (setting [15]), no less than 200 µM; in series [3] (setting [16]), 98 µM (≈ 432 µg/mL); in series [3] (setting [17]), no less than 200 µM. Further, the solubility at 18 h in series [3] (setting [18]) and in series [3] (setting [19]) was no less than 200 µM each time. The “Food intake reduction 0-24 h 30 nmol/kg (%)” value in series [4] (0-24 h) was determined as 69%. In series [4] (24-48 h), the “Food intake reduction 24-48 h 30 nmol/kg (%)” value was 21%.
For `CC[C@H](C)[C@H](NC(=O)[C@H](C)NC(=O)CNC(=O)[C@H](Cc1ccccc1)NC(=O)[C@H](CC(N)=O)NC(=O)[C@@H]1CCCN1C(=O)[C@H](CO)NC(=O)[C@H](CO)NC(=O)[C@H](Cc1c[nH]cn1)NC(=O)[C@H](CCCNC(=N)N)NC(=O)[C@H](CC(C)C)NC(=O)[C@H](Cc1ccccc1)NC(=O)[C@H](CC(N)=O)NC(=O)[C@H](C)NC(=O)[C@H](CC(C)C)NC(=O)[C@H](CCCNC(=N)N)NC(=O)[C@H](CCC(N)=O)NC(=O)[C@@H](NC(=O)[C@H](C)NC(=O)[C@@H]1CSSC[C@H](NC(=O)[C@@H](N)CCCCNC(=O)CC[C@H](NC(=O)CCCCCCCCCCCCCCCCC(=O)O)C(=O)O)C(=O)N[C@@H](CC(N)=O)C(=O)N[C@@H]([C@@H](C)O)C(=O)N[C@@H](C)C(=O)N[C@@H]([C@@H](C)O)C(=O)N1)[C@@H](C)O)C(=O)N1CCC[C@H]1C(=O)N[C@@H](CO)C(=O)N[C@@H](CO)C(=O)N[C@H](C(=O)N[C@@H](CC(N)=O)C(=O)N[C@H](C(=O)NCC(=O)N[C@@H](Cc1c[nH]cn1)C(=O)N[C@@H](CC(N)=O)C(=O)N[C@H](C(=O)N[C@@H](Cc1ccc(O)cc1)C(N)=O)[C@@H](C)O)C(C)C)[C@@H](C)O` [Example 113], the IC50 in series [1] was found to be 47 nM. Moreover, the “Ratio hCT/hAmylin binding” value in series [2] (setting [5]), in series [2] (setting [6]), in series [2] (setting [7]), in series [2] (setting [8]), in series [2] (setting [9]) and in series [2] (setting [10]) was 59.4 each time. Further, in series [2] (setting [11]), the “Ratio hCT/hAmylin binding” value is given as 59.4. For the same molecule, the solubility at 18 h in series [3] (setting [12]) was no less than 200 µM; in series [3] (setting [13]), 154 µM (≈ 678 µg/mL); in series [3] (setting [14]) it was no less than 200 µM; in series [3] (setting [16]), 96 µM (≈ 423 µg/mL); in series [3] (setting [17]), no less than 200 µM; in series [3] (setting [18]) it was no less than 200 µM. Further, in series [3] (setting [19]), the solubility at 18 h was no less than 200 µM. In series [4] (0-24 h), the “Food intake reduction 0-24 h 30 nmol/kg (%)” value is 48%. For the same molecule, in series [4] (24-48 h), the “Food intake reduction 24-48 h 30 nmol/kg (%)” value is given as 2%.
